Assay results published in patent US4123613A, “Substituted pyrazines as inhibitors of platelet aggregation” (Societa Farmaceutici Italia S.p.A., priority 1976, dated 1978).
Values after ≈ are worked out from the molar mass of the structure shown. Where two headings read alike, the source gives them in different places.

Tested on: platelet aggregation (rabbit platelets, ADP-induced)
Experiment: ADP-induced platelet aggregation in vitro (turbidimetric method, rabbit platelet-rich plasma)
Type: cell-based
Settings: for Percent inhibition of platelets aggregation / inhibition at 25 µg/mL / inhibition at 50 µg/mL / inhibition at 100 µg/mL / inhibition at 200 µg/mL: tartrate salt; for inhibition at 25 µg/mL / inhibition at 50 µg/mL / inhibition at 100 µg/mL / inhibition at 200 µg/mL: Platelet, read-out: Percent inhibition of platelets aggregation
Method: In the biological tests hereafter described, the products were assayed as the tartrate salts.
Male rabbits weighing 2.5-3.5 Kg were used. Fifty four ml of blood were withdrawn from the carotid artery of rabbits anaesthetized with ether.
The PRP was obtained by centrifugation at 400 g for 10 minutes. The concentration of the platelets was adjusted to 250,000/mm^3 by diluting the PRP with PPP prepared by a second centrifugation of the blood samples for about 10 minutes at 2000 g.
The aggregation experiments were generally performed within 1-2 h from the time of blood collection.
In the cuvette of the aggregometer, reagents were added as follows: 0.8 ml drug solution or saline, and 0.2 ml ADP, at the molar concentration of 2.2 × 10^-4. The turbidimetry was checked after 11/2, 3 and 6 minutes. The inhibition of the aggregation is given in the table below as percent of ADP controls at the three times.

[1] = 25 γ/ml, 90 seconds after ADP (2.2 × 10^-4)
[2] = 25 γ/ml, 180 seconds after ADP (2.2 × 10^-4)
[3] = 25 γ/ml, 360 seconds after ADP (2.2 × 10^-4)
[4] = 50 γ/ml, 90 seconds after ADP (2.2 × 10^-4)
[5] = 50 γ/ml, 180 seconds after ADP (2.2 × 10^-4)
[6] = 50 γ/ml, 360 seconds after ADP (2.2 × 10^-4)
[7] = 100 γ/ml, 90 seconds after ADP (2.2 × 10^-4)
[8] = 100 γ/ml, 180 seconds after ADP (2.2 × 10^-4)
[9] = 100 γ/ml, 360 seconds after ADP (2.2 × 10^-4)
[10] = 200 γ/ml, 90 seconds after ADP (2.2 × 10^-4)
[11] = 200 γ/ml, 180 seconds after ADP (2.2 × 10^-4)
[12] = 200 γ/ml, 360 seconds after ADP (2.2 × 10^-4)
[13] = inhibition of platelet aggregation, at all three times

Row | SMILES | Percent inhibition of platelets aggregation [1] [%] | Percent inhibition of platelets aggregation [2] [%] | Percent inhibition of platelets aggregation [3] [%] | Percent inhibition of platelets aggregation [4] [%] | Percent inhibition of platelets aggregation [5] [%] | Percent inhibition of platelets aggregation [6] [%] | Percent inhibition of platelets aggregation [7] [%] | Percent inhibition of platelets aggregation [8] [%] | Percent inhibition of platelets aggregation [9] [%] | Percent inhibition of platelets aggregation [10] [%] | Percent inhibition of platelets aggregation [11] [%] | Percent inhibition of platelets aggregation [12] [%] | activity (inhibition of platelet aggregation, in words) (at all three times) | also measured
1 | CO[C@]12C[C@@H](CSc3nccnc3Cl)CN(C)[C@@H]1Cc1cn(C)c3cccc2c13 [355/915, 2-(10'-methoxy-1',6'-dimethylergoline-8'β-methyl)thio-3-chloropyrazine] | 10 | 10 | 10 | 20 | 15 | 25 | 75 | 75 | 80 | 100 | 100 | 100 | very strong activity | ED50 [13]: 55 to 70 µg/mL
2 | COc1nccnc1NC[C@H]1CN(C)[C@@H]2Cc3cn(C)c4cccc(c34)[C@@]2(OC)C1 [355/899, 2-(10'-methoxy-1',6'-dimethylergoline-8'β-methyl)amino-3-methoxypyrazine] |  |  |  | 10 | 9 | 10 | 30 | 30 | 30 | 60 | 61 | 61 |  | 
3 | COc1nccnc1SCC1CN(C)C2Cc3cn(C)c4cccc(c34)C2(OC)C1 (stereo not drawn) [355/918, 2-(10'-methoxy-1',6'-dimethylergoline-8'β-methyl)thio-3-methoxypyrazine] |  |  |  |  |  |  |  |  |  |  |  |  | very strong activity | inhibition at 25 µg/mL (Oryctolagus cuniculus, 25 γ/ml, 90 seconds after ADP (2.2 × 10^-4)): 25%; inhibition at 25 µg/mL (Oryctolagus cuniculus, 25 γ/ml, 180 seconds after ADP (2.2 × 10^-4)): 20%; inhibition at 25 µg/mL (Oryctolagus cuniculus, 25 γ/ml, 360 seconds after ADP (2.2 × 10^-4)): 26%; inhibition at 50 µg/mL (Oryctolagus cuniculus, 50 γ/ml, 90 seconds after ADP (2.2 × 10^-4)): 45%; inhibition at 50 µg/mL (Oryctolagus cuniculus, 50 γ/ml, 180 seconds after ADP (2.2 × 10^-4)): 31%; inhibition at 50 µg/mL (Oryctolagus cuniculus, 50 γ/ml, 360 seconds after ADP (2.2 × 10^-4)): 42%; inhibition at 100 µg/mL (Oryctolagus cuniculus, 100 γ/ml, 90 seconds after ADP (2.2 × 10^-4)): 80%; inhibition at 100 µg/mL (Oryctolagus cuniculus, 100 γ/ml, 180 seconds after ADP (2.2 × 10^-4)): 70%; inhibition at 100 µg/mL (Oryctolagus cuniculus, 100 γ/ml, 360 seconds after ADP (2.2 × 10^-4)): 80%; inhibition at 200 µg/mL (Oryctolagus cuniculus, 200 γ/ml, 90 seconds after ADP (2.2 × 10^-4)): 100%; inhibition at 200 µg/mL (Oryctolagus cuniculus, 200 γ/ml, 180 seconds after ADP (2.2 × 10^-4)): 100%; inhibition at 200 µg/mL (Oryctolagus cuniculus, 200 γ/ml, 360 seconds after ADP (2.2 × 10^-4)): 100%; IC50 (Oryctolagus cuniculus, inhibition of platelet aggregation, at all three times, read-out: ED50 (the source's name)): 55 to 70 µg/mL (≈ 130 to 165 µM)
4 | CO[C@]12C[C@@H](CSc3cnccn3)CN(C)[C@@H]1Cc1cn(C)c3cccc2c13 [355/917, 2-(10'-methoxy-1',6'-dimethylergoline-8'β-methyl)thiopyrazine] |  |  |  |  |  |  |  |  | 10 | 15 | 12 | 35 | very low activity | 
5 | CO[C@]12C[C@@H](CNc3nccnc3Cl)CN(C)[C@@H]1Cc1cn(C)c3cccc2c13 [355/898, 2-(10'methoxy-1',6'-dimethylergoline-8'β-methyl)amino-3-chloropyrazine] | 17 | 20 | 30 | 35 | 31 | 45 | 67 | 71 | 76 | 77 | 82 | 83 |  | 
6 | CO[C@]12C[C@@H](CNc3cncc(Cl)n3)CN(C)[C@@H]1Cc1cn(C)c3cccc2c13 [355/900, 2-(10'-methoxy-1',6'-dimethylergoline-8'β-methyl)amino-6-chloropyrazine] | 10 | 10 | 10 | 40 | 25 | 30 | 80 | 70 | 80 | 100 | 100 | 100 | very strong activity | ED50 [13]: 55 to 70 µg/mL
7 | CO[C@]12C[C@@H](CNc3cnccn3)CN(C)[C@@H]1Cc1cn(C)c3cccc2c13 [355/895, 2-(10'-methoxy-1',6'-dimethylergoline-8'β-methyl)aminopyrazine] |  |  |  |  |  | 5 | 10 | 12 | 20 | 50 | 55 | 62 | very low activity | 
